Measured values taken from US4153710A, “N-(4-[2-(pyrazole-1-carbonamide)-ethyl]-benzenesulphonyl)-urea” (Starogardzkie Zaklady Farmaceutyczne POLFA, priority 1976, dated 1979).
Where “and” joins values, the source holds several entries; their conditions need not be identical. Identical values can stand only once.

Legend:
[1] = test system: calcium transmission in mitochondria of a rat's liver; test: Calcium transmission to rat liver mitochondria; assay type: biochemical; conditions: for % of inhibition, calcium transmission: medium with CaCl 300 nmoles/ml; for Ki / preference of inhibition: calcium transmission versus oxidizing processes: rat liver mitochondria
Procedure: Sucrose 170mM, KCl 10 mM, MgCl2 […], K2 HPO 5 mM, EGTA 0.01 mM
2-oxoglutaran 2 mM, ADP 1 mM, mitochondria
protein 4 mg/m. Temperature 25° C.
of hydrogen ion consumption. The calcium transmission to mitochondria was
studied with two methods; in a continuous way with a Radiometer calcium
electrode type F2112 or with an isotopic method.
*The medium contained Ca Cl 300 nmoles/ml.

[2] = test system: oxidizing phosphorylation in mitochondria of a rat's liver; test: Oxidizing phosphorylation of rat liver mitochondria; assay type: biochemical; conditions: for Ki: rat liver mitochondria
Procedure: 2-oxoglutaran 2 mM, ADP 1 mM, mitochondria | protein 4 mg/m. […] The | oxidizing phosphorylation speed was determined by means of the measuremen | of hydrogen ion consumption. The calcium transmission to mitochondria was […]

[3] = test system: oxygen consumption in mitochondria of a rat's liver; test: Oxygen consumption of rat liver mitochondria; assay type: biochemical; conditions: for Ki: rat liver mitochondria
Procedure: 2-oxoglutaran 2 mM, ADP 1 mM, mitochondria | protein 4 mg/m. […] The

[4] = test system: blood-glucose concentration; test: Decrease in blood-glucose concentration in rats after oral dose (Table 1; ED30 rats Table 2); assay type: in vivo; conditions: Rattus norvegicus, oral, read-out: Effective oral doses ED30
Source text: (§1) The hypoglycemic activity of N-{4-[2-(pyrazole-1-carbonamide)-ethyl]-benzenesulphonyl}-ureas prepared according to the present invention can be noticed after their oral administration to mice, rats, rabbits and people and when determining the glucose concentration in blood with a known enzymatic method using glucose oxidase.
The exemplary comparison of effective doses (ED30) and the effect of oral dose size of the compounds prepared according to the present invention with Glibornuride, which is distinguished by its high effectiveness and good tolerance when administered to people, on the glucose concentration in the blood of rats, is given in Table 1.

insulin concentration = test: Insulin in normal men volunteers (Table 7); assay type: in vivo; conditions: oral 5 mg SPC-5002 or 12.5 mg Glibornuride
Procedure: (§2) When administered to normal men volunteers it has been stated that 60 minutes after the administration of SPC-5002 a 5 mg oral dose causes the decrease in blood-glucose of 28% in comparision to the starting value and after 90 minutes it reaches 33% (Table 7). Whereas Glibornuride employed in a dose 2.5 times as big on peak of its activity decreases the glucose blood level only of 19%. It can clearly be noticed that there is a positive correlation between the glycemic and insulin level curves. Both examined preparations cause a significant decrease in free fatty acids in blood. […] 60 and 90 minutes after the SPC-5002 administration, the blood-glycose level is decreased to 33 and 52% while in the Placebo group it is maintained in the range of 13-14%.
(§3) The comparison of glucose, insulin and free fatty acids concentration in
(§4) normal men after the oral administration of 5 mg of SPC-5002 or 12.5 mg

[5] = test system: blood-glucose concentration; test: Blood-glucose time course up to 24 hours in rats (Table 3); assay type: in vivo; conditions: for glucose concentration in blood, average: oral 4 mg/kg
Procedure: as §1
(§5) (Table 2). […] It has been observed that even 9 hours after the administration of one dose of SPC-5002 to rats, the glucose level in blood was decreased, whereas in the case of Glibornuride the glucose level comes back to its normal value in 6 hours from the time of the administration.
(§6) The comparison of SPC-5002 and Glibornuride effect on changes in
concentration of rats in time up to 24 hours from the moment of the
in an oral dose containing 4 mg/kg body weight

[6] = test system: blood-glucose concentration; test: Blood-glucose time course up to 24 hours in rabbits (Table 4); assay type: in vivo; conditions: oral 5 mg/kg
Procedure: as §1, with “oxidase. […]” for “oxidase.”
as §6
concentration of rabbits in time up to 24 hours from the moment of the
in an oral dose containing 5 mg/kg body weight

[7] = test system: free fatty acids concentration; test: Free fatty acids in normal men volunteers (Table 7); assay type: in vivo; conditions: oral 5 mg SPC-5002 or 12.5 mg Glibornuride
Procedure: as §2, §3, §4

[8] = test system: blood-glucose concentration; test: ED30 oral hypoglycemic dose in mice (Table 2); assay type: in vivo
Procedure: as §1, §5

[9] = test system: blood-glucose concentration; test: ED30 oral hypoglycemic dose in rabbits (Table 2); assay type: in vivo; conditions: Oryctolagus cuniculus, read-out: Effective oral doses ED30
Procedure: as §1, §5

glucose concentration = test: Blood glucose in normal men volunteers (Table 7); assay type: in vivo; conditions: for Glucose concentration: oral 5 mg SPC-5002 or 12.5 mg Glibornuride
Procedure: as §1, §2, §3, §4

COc1ccc(Cl)cc1C(=O)NCCc1ccc(S(=O)(=O)NC(=O)NC2CCCCC2)cc1 [Glibenclamide]
Calcium transmission / Oxide consumption (ratio of inhibition) ([1]; concentration 0.01 n M): 0.46
% of inhibition, calcium transmission ([1]; concentration 0.01 n M): 12%
Calcium transmission / Oxide consumption (ratio of inhibition) ([1]; concentration 0.02 n M): 0.65
% of inhibition, calcium transmission ([1]; concentration 0.02 n M): 28%
Calcium transmission / Oxide consumption (ratio of inhibition) ([1]; concentration 0.05 n M): 0.82
% of inhibition, calcium transmission ([1]; concentration 0.05 n M): 52%
Calcium transmission / Oxide consumption (ratio of inhibition) ([1]; concentration 0.1 n M): 0.90
% of inhibition, calcium transmission ([1]; concentration 0.1 n M): 68%
Calcium transmission / Oxide consumption (ratio of inhibition) ([1]; concentration 0.5 n M): 0.97
% of inhibition, calcium transmission ([1]; concentration 0.5 n M): 85%
Ki [1]: 47 µM
preference of inhibition: calcium transmission versus oxidizing processes [1]: acts much stronger on oxidizing and phosphorylation processes than on the calcium transmission
Ki ratio SPC-5002 / Glibenclamide, calcium transmission ([1]; ratio of inhibitor constants): 10
% of inhibition, oxidizing phosphorylation ([2]; concentration 0.01 n M): 29%
% of inhibition, oxidizing phosphorylation ([2]; concentration 0.02 n M): 48%
% of inhibition, oxidizing phosphorylation ([2]; concentration 0.05 n M): 60%
% of inhibition, oxidizing phosphorylation ([2]; concentration 0.1 n M): 80%
% of inhibition, oxidizing phosphorylation ([2]; concentration 0.5 n M): 100%
Ki [2]: 22 µM
% of inhibition, oxygen consumption ([3]; concentration 0.01 n M): 26%
% of inhibition, oxygen consumption ([3]; concentration 0.02 n M): 43%
% of inhibition, oxygen consumption ([3]; concentration 0.05 n M): 60% and 63%
% of inhibition, oxygen consumption ([3]; concentration 0.1 n M): 75%
% of inhibition, oxygen consumption ([3]; concentration 0.5 n M): 87%
Ki [3]: 30 µM

Cc1ccc(S(=O)(=O)NC(=O)N[C@H]2[C@H]3CC[C@@](C)([C@H]2O)C3(C)C)cc1 [Glibornuride, N-(p-toluenesulphonyl)-N'-(2-endo-hydroxy-3-endo-bornyl)-urea, reference compound]
ED30 [4]: 3.8 mg/kg
Insulin concentration (insulin concentration; 0 mins (empty stomach)): 3.6 μU/cc
Insulin concentration (insulin concentration; 30 mins): 4.2 μU/cc
Insulin concentration (insulin concentration; 60 mins): 6.2 μU/cc
Insulin concentration (insulin concentration; 90 mins): 5.2 μU/cc
Insulin concentration (insulin concentration; 120 mins): 6.4 μU/cc
Insulin concentration (insulin concentration; 180 mins): 4.4 μU/cc
duration of decreased blood glucose after one dose ([5]; one dose): 6 h
glucose concentration in blood, average ([5]; 0 h): 68 mg/100 cc
glucose concentration in blood, average ([5]; 1 h): 48 mg/100 cc
glucose concentration in blood, average ([5]; 3 h): 47 mg/100 cc
glucose concentration in blood, average ([5]; 6 h): 65 mg/100 cc
glucose concentration in blood, average ([5]; 9 h): 74 mg/100 cc
glucose concentration in blood, average ([5]; 24 h): 77 mg/100 cc
glucose concentration in blood, average ([6]; 0 h): 74 mg/100 cc
glucose concentration in blood, average ([6]; 0.5 h): 62 mg/100 cc
glucose concentration in blood, average ([6]; 1 h): 63 mg/100 cc
% of decrease /-/ or increase /+/ of blood glucose ([6]; 3 h): 0%
glucose concentration in blood, average ([6]; 3 h): 74 mg/100 cc
glucose concentration in blood, average ([6]; 6 h): 75 mg/100 cc
glucose concentration in blood, average ([6]; 9 h): 75 mg/100 cc
glucose concentration in blood, average ([6]; 24 h): 78 mg/100 cc
Calcium transmission / Oxide consumption (ratio of inhibition) ([1]; concentration 0.5 n M): 2.36
% of inhibition, calcium transmission ([1]; concentration 0.5 n M): 52%
Calcium transmission / Oxide consumption (ratio of inhibition) ([1]; concentration 1.0 n M): 1.60
% of inhibition, calcium transmission ([1]; concentration 1.0 n M): 76%
Ki [1]: 490 µM
preference of inhibition: calcium transmission versus oxidizing processes [1]: preferential inhibiting of calcium transmission
% of inhibition, oxidizing phosphorylation ([2]; concentration 0.5 n M): 32%
% of inhibition, oxidizing phosphorylation ([2]; concentration 1.0 n M): 59%
Ki [2]: 760 µM
Free fatty acids concentration ([7]; 0 mins (empty stomach)): 0.76 mEq/1000 cc
Free fatty acids concentration ([7]; 30 mins): 0.58 mEq/1000 cc
Free fatty acids concentration ([7]; 60 mins): 0.46 mEq/1000 cc
Free fatty acids concentration ([7]; 90 mins): 0.48 mEq/1000 cc
Free fatty acids concentration ([7]; 120 mins): 0.51 mEq/1000 cc
Free fatty acids concentration ([7]; 180 mins): 0.52 mEq/1000 cc
ED30 relative to SPC-5002 [8]: almost three times as big as for SPC-5002
ED30 ([8]; Mus musculus, oral, read-out: Effective oral doses ED30): 5.2 mg/kg
ED30 [9]: 7.6 mg/kg
% of inhibition, oxygen consumption ([3]; concentration 0.5 n M): 22%
% of inhibition, oxygen consumption ([3]; concentration 1.0 n M): 47%
Ki [3]: 1150 µM
decrease in glucose blood level at peak of activity (glucose concentration; dose 2.5 times that of SPC-5002 (12.5 mg)): 19%
Glucose concentration (glucose concentration; 0 mins (empty stomach)): 91.0 mg/100 cc
Glucose concentration (glucose concentration; 30 mins): 87.0 mg/100 cc
Glucose concentration (glucose concentration; 60 mins): 80.0 mg/100 cc
Glucose concentration (glucose concentration; 90 mins): 74.0 mg/100 cc
Glucose concentration (glucose concentration; 120 mins): 75.0 mg/100 cc
Glucose concentration (glucose concentration; 180 mins): 76.0 mg/100 cc
